{"source": "paper PMC10649274", "about": "(International Journal of Molecular Sciences, 2023)", "key": {"[1]": {"tested_on": "native NMDA receptors", "experiment": "Whole-cell patch clamp of NMDA plus glycine induced currents in isolated CA1 pyramidal neurons", "type": "cell-based, rat", "protocol": "The rats were anesthetised with sevoflurane and then decapitated. The brains were brought out quickly and cooled to 2–4 °C. […] All experiments were performed at room temperature.\nVibrodissociation method was used to free CA1 pyramidal neurons from slices. This method allows for isolating cells without enzymatic treatment and keeping them in more native state. Pyramidal cells were isolated from the stratum pyramidale and distinguished from non-pyramidal cells on the basis of pyramidal-like somata and preserved apical dendrites.\nTo record membrane currents in response to applications of NMDA and glycine, the whole-cell configuration of patch clamp technique was used. Series resistance (<20 MΩ) was compensated by 70–80% and monitored during experiments. Only cells with stable holding currents were used in further analysis. The current signals were amplified using EPC-8 (HEKA Electronics, Lambrecht, Germany), filtered at 5 kHz, sampled, and stored on a personal computer. RSC-200 (BioLogic Science Instruments, Claix, France) perfusion system was used to apply the drugs under computer control. […] The pipettes with resistance of 2–5 MΩ were filled with the following solution (in mM): CsF 100, CsCl 40, NaCl 5, CaCl2 0.5, EGTA 5, HEPES 10 (pH adjusted to 7.2 with CsOH). […] Other reagents were purchased from MedChemExpress (Monmouth Junction, NJ, USA), Sigma (St. Louis, MO, USA), or Tocris Bioscience (Bristol, UK).\nNMDA receptors were activated with 100 µM NMDA plus 10 µM glycine unless otherwise stated. […] Kinetics of transient processes of more than 20 ms duration were approximated with single or double exponential functions. In case of double exponential fitting, the weighted time constant was used."}, "[2]": {"target": "native NMDA receptors", "experiment": "Analysis of voltage dependence of NMDA receptor block (Woodhull model with voltage-independent component, Equation (2))", "type": "cell-based, rat", "protocol": "NMDA receptors were activated with 100 µM NMDA plus 10 µM glycine unless otherwise stated. The percentages of blocking of the steady-state or peak currents by different drug concentrations were measured at −80, −30 or +30 mV holding voltages. Kinetics of transient processes of more than 20 ms duration were approximated with single or double exponential functions. In case of double exponential fitting, the weighted time constant was used.\nThe voltage dependence of compounds’ action was analyzed with the classical Woodhull model with the addition of a voltage-independent component. […] Kb is the affinity of a drug for the channel, and δ is the electrical depth of the binding site. The δ value reflects the fraction of membrane electric field that the charged blocking molecule crosses on its pathway between the external media and the binding site in the channel.\nThus, we deduced Equation (2), taking it into account and assuming that the binding to the deep and shallow site is independent:(2) B=100−100/(1+C/(Kvd∗exp〖Fzδ/RTV〗)+C/Kvi+(C∗C)/((Kvd∗exp〖Fzδ/RTV〗∗Kvi))\nIn this equation, Kvd is the affinity of the drug to the deep site, Kvi—the affinity of the drug to the shallow site, and other parameters are the same as in Equation (1).\nAll experimental data are presented as the mean ± SD estimated from at least four experiments (cells). Significance of the effects was tested with t-tests. Differences were considered significant at p < 0.05. Concentration dependencies were approximated with Hill equation. Voltage dependencies were approximated with Equation (2). […] Approximation error values were taken as the precision measures."}, "[3]": {"tested_on": "native NMDA receptors", "details": "cited from earlier work"}, "[4]": {"tested_on": "native NMDA receptors", "details": "cited from earlier work", "remark": "listed apart in the source"}, "[5]": {"target": "GLUN2B-containing NMDA receptor", "details": "fractionated rat brain membranes; read-out: IC50 of [3H]ifenprodil binding inhibition; cited from earlier work"}, "[6]": {"tested_on": "rat retinal excitotoxicity model", "details": "cited from earlier work"}, "[7]": {"tested_on": "animal pancreatitis models", "details": "cited from earlier work"}}, "note": "Values joined by “and” are separate entries in the source; they are usually repeats but may differ in a detail not shown here. Identical values can stand only once. Like-named read-outs stand apart in the source and are kept apart here."}
{"smiles": "N=C(N)c1ccc2cc(OC(=O)c3ccc(N=C(N)N)cc3)ccc2c1", "note": "[Nafamostat]", "values": [{"measurement": "change of inhibition with increase of NMDA concentration from 30 to 1000 µM", "setting": "[1]; holding voltage not stated", "value": "not attenuated significantly"}, {"measurement": "Kd", "setting": "[2]; Equation (2) fit, zδ free, reanalysis of the authors' earlier voltage dependence data [16],[17], read-out: Kvd", "value": "12 ± 3", "unit": "µM"}, {"measurement": "Kd", "setting": "[2]; Equation (2) fit, zδ free, reanalysis of the authors' earlier voltage dependence data [16],[17], read-out: Kvi", "value": "2.9 ± 0.5", "unit": "µM"}, {"measurement": "Kd", "setting": "[2]; Equation (2) with fixed zδ (0.55 mono-, 1.1 dicationic), reanalysis of earlier data [16],[17], read-out: Kvd, fixed zδ (converted)", "value": "10 µM and 10.5 µM"}, {"measurement": "Kd", "setting": "[2]; Equation (2) with fixed zδ (0.55 mono-, 1.1 dicationic), reanalysis of earlier data [16],[17], read-out: Kvi, fixed zδ (converted)", "value": 3, "unit": "µM"}, {"measurement": "effect on plateau/peak ratio", "setting": "[3]", "value": "did not significantly change the plateau/peak ratio"}, {"measurement": "overshoots after washout", "setting": "[3]", "value": "did not demonstrate overshoots"}, {"measurement": "type of channel block (interaction with channel gate)", "setting": "[3]", "value": "foot-in-the-door"}, {"measurement": "activity in the presence of magnesium", "setting": "[3]; −30 mV, 1 mM Mg2+", "value": "attenuated in the presence of magnesium"}, {"measurement": "IC50", "setting": "[3]; −30 mV, 1 mM Mg2+, read-out: IC50 in the presence of magnesium", "value": "1.7 ± 0.2", "unit": "µM"}, {"measurement": "IC50", "setting": "[3]; −80 mV holding voltage, native NMDA receptors, earlier papers of the authors, read-out: IC50, −80 mV", "value": "0.2 ± 0.04", "unit": "µM"}, {"measurement": "voltage dependence of NMDA receptor inhibition", "setting": "[4]", "value": "strongly voltage-dependent"}, {"measurement": "IC50", "setting": "[5]", "value": 4.52, "unit": "µM"}, {"measurement": "retinal protection", "setting": "[6]", "value": "retinoprotective properties"}, {"measurement": "activity in animal pancreatitis models", "setting": "[7]", "value": "significant activity"}]}
{"smiles": "N=C(N)c1ccc2cc(OC(=O)c3ccc(NC4=NCCN4)cc3)ccc2c1", "note": "[Sepimostat]", "values": [{"measurement": "nature of voltage-independent component of inhibition", "setting": "[1]", "value": "agonist-dependent but non-competitive"}, {"measurement": "% block", "setting": "[1]; 5 µM, 3 mM NMDA, +30 mV, n = 4", "value": "25 ± 4", "unit": "%"}, {"measurement": "% block", "setting": "[1]; 5 µM, 3 mM NMDA, −30 mV, n = 10", "value": "20 ± 5", "unit": "%"}, {"measurement": "inhibition at high NMDA concentrations", "setting": "[1]; 5 µM, 1000 and 3000 µM NMDA, −80 mV", "value": "about 50%"}, {"measurement": "% block", "setting": "[1]; 5 µM, +30 mV, representative trace, Figure 2A", "value": 47, "unit": "%"}, {"measurement": "% block", "setting": "[1]; 5 µM, −30 mV, NMDA 30 µM, Figure 5A", "value": 78, "unit": "%"}, {"measurement": "% block", "setting": "[1]; 5 µM, −30 mV, NMDA 1 mM, Figure 5A", "value": 26, "unit": "%"}, {"measurement": "% block", "setting": "[1]; 5 µM, −30 mV, representative trace, Figure 2A", "value": 49, "unit": "%"}, {"measurement": "% block", "setting": "[1]; 5 µM, −80 mV, NMDA 30 µM, Figure 5A", "value": 78, "unit": "%"}, {"measurement": "% block", "setting": "[1]; 5 µM, −80 mV, NMDA 1 mM, Figure 5A", "value": 44, "unit": "%"}, {"measurement": "% block", "setting": "[1]; 5 µM, −80 mV, representative trace, Figure 2A", "value": 57, "unit": "%"}, {"measurement": "% block", "setting": "[1]; 5 µM, −120 mV, representative trace, Figure 2A", "value": 72, "unit": "%"}, {"measurement": "plateau/peak ratio in the presence of blocker", "setting": "[1]; 10 µM, −80 mV, control 0.6 ± 0.1, n = 4", "value": "1.1 ± 0.3"}, {"measurement": "normalized plateau/peak ratio ((IBS/IB0)/(ICS/IC0))", "setting": "[1]; 10 µM, −80 mV, n = 4", "value": "1.8 ± 0.1"}, {"measurement": "trapping in double-pulse protocol", "setting": "[1]; 30 µM, n = 5", "value": "no signs of trapping"}, {"measurement": "τfall of overshoot", "setting": "[1]; 30 µM, overshoot falling phase, n = 4", "value": "770 ± 140", "unit": "ms"}, {"measurement": "τrise of overshoot", "setting": "[1]; 30 µM, overshoot rising phase, n = 4", "value": "62 ± 15", "unit": "ms"}, {"measurement": "amplitude of overshoot relative to steady-state control response", "setting": "[1]; 30 µM, washout in the presence of agonists, n = 4", "value": "1.8 ± 0.3"}, {"measurement": "% block", "setting": "[1]; 30 µM, −80 mV", "value": "> 90", "unit": "%"}, {"measurement": "amplitude of tail currents relative to steady-state control response", "setting": "[1]; 30 µM, −80 mV, washout in the absence of agonists, n = 6", "value": "1.3 ± 0.5"}, {"measurement": "IC50", "setting": "[1]; +30 mV holding voltage, steady-state, read-out: IC50, steady-state component", "value": "5.8 ± 1.5", "unit": "µM"}, {"measurement": "change of inhibition with increase of NMDA concentration", "setting": "[1]; −30 mV", "value": "attenuated"}, {"measurement": "competition with Mg2+ for binding site in channel pore", "setting": "[1]; −30 mV, 1 mM Mg2+", "value": "does not compete"}, {"measurement": "IC50", "setting": "[1]; −30 mV, 1 mM Mg2+, n = 7, read-out: IC50 in the presence of magnesium", "value": "3.6 ± 1.1", "unit": "µM"}, {"measurement": "IC50", "setting": "[1]; −30 mV, no Mg2+, n = 5, read-out: IC50 in the absence of magnesium", "value": "3.6 ± 1", "unit": "µM"}, {"measurement": "change of inhibition with increase of NMDA concentration from 30 to 1000 µM", "setting": "[1]; −80 mV", "value": "significantly decreased"}, {"measurement": "type of channel block (interaction with channel gate)", "setting": "[1]; −80 mV", "value": "foot-in-the-door"}, {"measurement": "IC50", "setting": "[1]; −80 mV holding voltage, NMDA 100 µM + glycine 10 µM, steady-state (plateau) current, read-out: IC50, steady-state component", "value": "3.5 ± 0.3", "unit": "µM"}, {"measurement": "IC50", "setting": "[1]; −80 mV, NMDA 100 µM + glycine 10 µM, peak current, read-out: IC50, peak component", "value": "1.8 ± 0.4", "unit": "µM"}, {"measurement": "voltage dependence of NMDA receptor inhibition", "setting": "[2]; 5 µM", "value": "mostly voltage-independent with a small voltage-dependent component"}, {"measurement": "Kd", "setting": "[2]; Equation (2) fit, zδ free, steady-state, read-out: Kvd, constant for voltage-dependent binding (deep site)", "value": "~130", "unit": "µM"}, {"measurement": "Kd", "setting": "[2]; Equation (2) fit, zδ free, steady-state, read-out: Kvi, constant for voltage-independent binding (shallow site)", "value": "7 ± 1", "unit": "µM"}, {"measurement": "Kd", "setting": "[2]; Equation (2) with fixed zδ 0.55 (monocation), read-out: Kvd, fixed zδ (converted)", "value": 102, "unit": "µM"}, {"measurement": "Kd", "setting": "[2]; Equation (2) with fixed zδ 0.55 (monocation), read-out: Kvi, fixed zδ (converted)", "value": "7 ± 1", "unit": "µM"}, {"measurement": "IC50", "setting": "[5]", "value": 29.8, "unit": "µM"}, {"measurement": "retinal protection", "setting": "[6]", "value": "retinoprotective properties"}, {"measurement": "activity in animal pancreatitis models", "setting": "[7]", "value": "significant activity"}]}
